The values that follow come from patent publication US20230250123A1, “GUT MICROBIOTA BIOACTIVATED PDE4 INHIBITOR PRECURSORS” (Giiant Pharma Inc., priority 2020, published 2023).

A short description of series [1]: Bidirectional Caco-2 permeability assay. Format: in vitro ADME. The conditions noted are these: human; Caco-2, 10 µM, apical pH 6.0 / basolateral pH 7.4, average of 2 determinations. The procedure: In vitro glycoside prodrug permeability assessment. The permeability of the glycoside prodrugs were measured using the bidirectional Caco-2 assay. Caco-2 cells were seeded onto permeable polycarbonate supports in 12-well Costar Transwell plates and allowed to grow and differentiate for 21-25 days. On day 24, culture medium (DMEM supplemented with 10% FBS, 1% non-essential amino acids and penicillin/streptomycin) was removed from both sides of the transwell inserts and cells were rinsed with warm HBSS. […] The buffer in the donor chamber (apical side for A-to-B assay, basolateral side for B-to-A assay) was removed and replaced with the working solution (10 µM test article in transport buffer). The plates were then placed at 37° C. under light agitation. At designated time points (30, 60 and 90 min); an aliquot of transport buffer from the receiver chamber was removed and replenished with fresh transport buffer. Samples were quenched with ice-cold CH3CN containing internal standard and then centrifuged to precipitate the protein. Resulting supernatants were further diluted with 50/50 ACN/H2O (H2O only for Atenolol) and submitted for LC/MS/MS analysis. […] Atenolol and propranolol were tested as low and […] permeability references. […] The apparent permeability (Papp, measured in cm/s) of a compound is determined according to the following formula: […]
Where dQ/dt is the net rate of appearance in the receiver compartment, A is the area of the Transwell measured in cm^2 (1.12 cm^2), C0 is the initial concentration of compound added to the donor chamber and 60 is the conversion factor for the minute to second.

Series [2] can be described thus: In vitro rate of glycoside prodrug hydrolysis in feces supernatant, mouse. The format is in vitro ADME. Conditions: 100 µM, 37° C., pH 6.5, 24 hr. The procedure: (§1) In vitro rate of glycoside prodrugs hydrolysis. The metabolic stability of prodrug candidates to release the parent PDE4 inhibitor could be assessed in vitro according, but not restricted, to the following protocol: feces were collected overnight on a mixture of dry and wet ice in a metabolic cage. Ten volumes (v/w; 30 mL) of 100 mM phosphate buffer (pH 6.5) were added to 3 g of freshly collected rodent feces. The mixture was homogenized with a Stomacher Circulator 400 (2 × 1 min-cycles at 225 rpm). The mixture was transferred to a 50 mL tubes, centrifuged at 10 000xg for 10 min (4° C.) and the supernatant was passed through a 0.45 µm-filter. In a 96 deep-well plate, 198 µL of feces supernatant were aliquoted in 2 wells per compound. Each compound, including positive control, was tested in duplicate. Then 2 µL of 10 mM stock solution of each test compound were spiked in individual wells (duplicate) at a final concentration of 100 µM and samples were sealed and mixed 30 sec at 1000 rpm using a vortexer. Samples were incubated at 37° C. for the desired time in the Thermomixer with constant agitation (300 rpm). At desired time-point, 25 µL of reaction mixture was added to 225 µL of ice-cold quenching solution (acetonitrile + 0.1% (v/v) formic acid) to stop the bacterial enzymatic activity. The quenched incubates were mixed and centrifuged 10 min at 21 000xg at 4° C. A real t0 (no metabolism, 100% total recovery of unchanged prodrug) was generated by adding 22.5 µL of feces supernatant to 225 µL of ice-cold quenching solution (acetonitrile + 0.1% (v/v) formic acid). Then 2.5 µL of 1 mM solution of each test compounds was added, sealed, mixed thoroughly and centrifuged 10 min at 21 000xg at 4° C. All samples, including analytical standards, were analyzed by LC-MS/MS to measure the concentration of the parent PDE4 inhibitor released and the concentration of the corresponding prodrug remaining. A set criteria of 100% recovery is targeted where the summation of the % of prodrug remaining and the % of parent PDE4 inhibitor released should be 100% with an experimental error tolerance of ± 20%. When prodrugs represented by Formula (I) were incubated 24 hours under the conditions described above using mouse, rat and dog feces, the glycoside prodrugs were hydrolyzed to release the corresponding parent PDE4 inhibitor III (Table 3). As a negative control, when compound 4, 10 and 21 were incubated 24 hours under the conditions described above but in the absence of enzyme activities, using mouse feces extract supernatant inactivated by boiling the supernatant 10 minutes, 100% of the prodrugs were recovered unchanged.

A short description of series [3]: In vitro rate of glycoside prodrug hydrolysis in feces supernatant, rat. The conditions noted are these: 100 µM, 37° C., pH 6.5, 24 hr. The format is in vitro ADME. The method, then: as §1
Series [4] can be described thus: In vitro rate of glycoside prodrug hydrolysis in feces supernatant, dog. Format: in vitro ADME. The conditions noted are these: 100 µM, 37° C., pH 6.5, 24 hr. The method, then:
In vitro rate of glycoside prodrugs hydrolysis. The metabolic stability of prodrug candidates to release the parent PDE4 inhibitor could be assessed in vitro according, but not restricted, to the following protocol: feces were collected overnight on a mixture of dry and wet ice in a metabolic cage. Ten volumes (v/w; 30 mL) of 100 mM phosphate buffer (pH 6.5) were added to 3 g of freshly collected rodent feces. The mixture was homogenized with a Stomacher Circulator 400 (2 × 1 min-cycles at 225 rpm). The mixture was transferred to a 50 mL tubes, centrifuged at 10 000xg for 10 min (4° C.) and the supernatant was passed through a 0.45 µm-filter. In a 96 deep-well plate, 198 µL of feces supernatant were aliquoted in 2 wells per compound. Each compound, including positive control, was tested in duplicate. Then 2 µL of 10 mM stock solution of each test compound were spiked in individual wells (duplicate) at a final concentration of 100 µM and samples were sealed and mixed 30 sec at 1000 rpm using a vortexer. Samples were incubated at 37° C. for the desired time in the Thermomixer with constant agitation (300 rpm). […] All samples, including analytical standards, were analyzed by LC-MS/MS to measure the concentration of the parent PDE4 inhibitor released and the concentration of the corresponding prodrug remaining. […]

Series [5] is described as follows: Negative control: incubation in mouse feces extract supernatant inactivated by boiling. Format: in vitro ADME. The conditions noted are these: 24 hours, mouse feces supernatant boiled 10 minutes (no enzyme activities). The procedure:
as §1, with “A set criteria of 100% recovery is targeted where the summation of the % of prodrug remaining and the % of parent PDE4 inhibitor released should be 100% with an experimental error tolerance of ± 20%. When prodrugs represented by Formula (I) were incubated 24 hours under the conditions described above using mouse, rat and dog feces, the glycoside prodrugs were hydrolyzed to release the corresponding parent PDE4 inhibitor III (Table 3). As a negative control, when compound 4, 10 and 21 were incubated 24 hours under the conditions described above but in the absence of enzyme activities, using mouse feces extract supernatant inactivated by boiling the supernatant 10 minutes, 100% of the prodrugs were recovered unchanged.” left out

For series [6], the system named is β-D-glucuronidase. Kind of series: Positive control: incubation with β-D-glucuronidase in phosphate buffer. The format is in vitro ADME. Conditions: β-D-glucuronidase 50U/mL, phosphate buffer pH 6.5, 37° C., 24 hours.
A short description of series [7]: In vivo glycoside prodrug bioactivation, oral dosing to rats.
Series [8] is described as follows: In vivo glycoside prodrug bioactivation, oral dosing to C57BI/6 mice. The conditions noted are these: labrasol/5%dextrose solution, over 48 hours.
Series [9] deals with LPS-induced TNFα in human whole blood. Kind of series: LPS-induced TNFα assay in human whole blood. The format is cell-based. The conditions noted are these: human whole blood from 12 healthy volunteers, LPS 1 µg/mL, 24 h; read-out: average IC50, TNFα inhibition.
Experimental: TNFα inhibition assay protocol. Potency of PDE4 inhibitors in the LPS-induced TNFα assay in human whole blood was measured using the following protocol: fresh blood is collected in heparinized tubes by venipuncture from healthy human volunteers (male and female). These subjects should not have apparent inflammatory conditions, no symptoms of bacterial/viral infection, no fever and should not take any NSAIDs for at least 1 week prior to blood collection. Blood from each donor was dispensed in a 96-deep well plate, 500 µL per well. Blood was pre-incubated with either 2 µL of vehicle (DMSO) or test compound at 37° C. /5% CO2 for 15 min. […] Duplicate independent incubations were performed for each inhibitor concentration with blood from each donor. Appropriate PBS controls (no LPS) were used as blanks (4 wells) while blood samples stimulated with LPS controls (no PDE4 inhibitor) served as positive controls (4 wells). […] Plasma TNFα was quantified by ELISA (Invitrogen, Frederick, MD, USA) following the manufacturer’s instructions. […] Assay plates were read on an Infinite F200 PRO-Tecan reader at 450 nm. Absorbance values were converted to % inhibition based on positive and negative control values on each plate, and resulting % inhibition data were fit to a four-parameter logistic by nonlinear regression using GraphPad Prism (version 6.00, GraphPad Software, Inc., La Jolla, CA, USA). […]
A short description of series [10]: in vivo. The conditions noted are these: C57BI/6, mouse, po.
Series [11] has as its target PDE4B1 (Homo sapiens, UniProt Q07343). As to the kind of experiment: Inhibitory potency against PDE4 isozymes (FAM-cAMP fluorescence polarization), PDE4B1.
Series [12] addresses PDE4D2 (Homo sapiens, UniProt Q08499). As to the kind of experiment: Inhibitory potency against PDE4 isozymes (FAM-cAMP fluorescence polarization), PDE4D2. Background: Polarisation of emitted light reports the rotation of a fluorescent probe.

Sequence of PDE4D2 (Q08499 303-809 limits assumed): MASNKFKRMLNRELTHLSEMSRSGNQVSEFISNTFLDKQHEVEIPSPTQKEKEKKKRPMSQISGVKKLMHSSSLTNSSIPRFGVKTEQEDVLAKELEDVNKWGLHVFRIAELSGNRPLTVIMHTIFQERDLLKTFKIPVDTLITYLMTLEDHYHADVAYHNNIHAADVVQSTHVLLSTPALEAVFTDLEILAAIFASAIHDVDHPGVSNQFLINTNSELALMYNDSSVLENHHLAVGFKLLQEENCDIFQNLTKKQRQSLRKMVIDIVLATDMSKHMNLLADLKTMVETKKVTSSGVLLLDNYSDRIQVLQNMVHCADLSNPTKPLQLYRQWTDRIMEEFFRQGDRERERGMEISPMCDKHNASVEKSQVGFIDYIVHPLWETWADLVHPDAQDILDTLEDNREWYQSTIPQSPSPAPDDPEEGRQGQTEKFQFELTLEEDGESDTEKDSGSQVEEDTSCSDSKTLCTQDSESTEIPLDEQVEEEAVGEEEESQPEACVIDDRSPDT
Sequence of PDE4B1 (Q07343 whole entry, species assumed): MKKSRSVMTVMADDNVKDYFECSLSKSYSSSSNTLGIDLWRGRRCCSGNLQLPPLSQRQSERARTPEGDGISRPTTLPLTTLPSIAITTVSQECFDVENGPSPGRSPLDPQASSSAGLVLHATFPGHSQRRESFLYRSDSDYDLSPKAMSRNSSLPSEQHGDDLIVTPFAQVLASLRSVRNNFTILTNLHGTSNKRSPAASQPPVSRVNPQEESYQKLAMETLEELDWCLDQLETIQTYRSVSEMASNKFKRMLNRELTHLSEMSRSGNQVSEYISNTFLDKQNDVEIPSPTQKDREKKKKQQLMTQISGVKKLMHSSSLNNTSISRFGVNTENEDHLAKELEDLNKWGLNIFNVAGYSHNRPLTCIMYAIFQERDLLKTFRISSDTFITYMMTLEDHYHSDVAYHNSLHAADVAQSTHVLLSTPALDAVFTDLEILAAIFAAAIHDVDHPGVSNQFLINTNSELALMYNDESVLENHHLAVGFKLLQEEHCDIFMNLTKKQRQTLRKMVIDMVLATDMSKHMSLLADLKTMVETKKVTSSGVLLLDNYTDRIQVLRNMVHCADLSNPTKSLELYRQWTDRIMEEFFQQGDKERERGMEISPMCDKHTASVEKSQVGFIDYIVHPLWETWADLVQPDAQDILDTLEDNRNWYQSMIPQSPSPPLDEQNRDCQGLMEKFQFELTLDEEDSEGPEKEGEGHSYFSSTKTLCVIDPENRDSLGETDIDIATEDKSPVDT

In the case of `COC(=O)[C@H]1O[C@@H](Oc2ccc(C[C@H](c3ccc(C(C)(C)O)nc3)c3ccc(OC(F)F)c(OC4CC4)c3)cn2)[C@H](O)[C@@H](O)[C@@H]1O` [Compound 10, (2S,3S,4S,5R,6S)-methyl 6-((5-((S)-2-(3-cyclopropoxy-4-(difluoromethoxy)phenyl)-2-(6-(2-hydroxypropan-2-yl)pyridin-3-yl)ethyl)pyridin-2-yl)oxy)-3,4,5-trihydroxytetrahydro-2H-pyran-2-carboxylate], the Papp A→B at 10 µM in series [1] turned out to be 3 nm/s. Moreover, the “Prodrug Remaining @ 24 hr (%)” value in series [2] turned out to be 74%; in [3] it was 47%; in [4], 67%. Moreover, the prodrug recovered unchanged in [5] stood at 100%; in series [6], 64%. The “extent of prodrug bioactivation (ratio of parent IIIb over residual prodrug 10 in excreted feces)” value in series [7] (oral, aqueous suspension, over 24 hours) turned out to be 96%. For the same compound, the “unchanged prodrug detected in excreted feces” value in series [8] is given as “only trace amount”.

As for `CC(C)(O)c1ccc([C@@H](Cc2ccc(=O)[nH]c2)c2ccc(OC(F)F)c(OC3CC3)c2)cn1` [IIIb, (S)-5-(2-(3-cyclopropoxy-4-(difluoromethoxy)phenyl)-2-(6-(2-hydroxypropan-2-yl)pyridin-3-yl)ethyl)pyridin-2(1H)-one], the IC50 was less than 0.05 µM in series [9], less than 0.01 µM in series [11] and less than 0.01 µM in series [12]. This compound gave a Kp in [10] of 200. In addition, in series [7] (compound 10 orally as aqueous suspension), the “time before which released IIIb was not detected in blood” value is not below 2 h.

As a reminder, the Papp A→B is how fast a substance crosses the layer from the apical side. Low readings indicate slow passage, high ones fast passage. The IC50 is the concentration that inhibits the measured activity by half.
